This data set in a line: Safety and tolerability, adverse events (Example 5). Format: in vivo, human. As for the experimental part: Safety and tolerability of Compound (a) was evaluated throughout the study, as described in Example 1.

The structures appear in SMILES notation.

Regarding `COc1cc(NC(C(=O)c2c[nH]c3ccc(OC(F)(F)F)cc23)c2ccc(Cl)cc2OC)cc(S(C)(=O)=O)c1` (centres unmarked) [Compound (a)], the Related adverse events entry was “no related AEs” (Panel I (LD 450 mg twice daily for two days, MD 900 mg Q7D)); “one Grade 1 AE of skin burning sensation considered related” (Panel II (LD 450 mg twice daily for two days, MD 450 mg Q3D or Q4D)); “no related AEs” (Panel III (LD 150 mg twice daily for two days, MD 300 mg Q7D)); “two Grade 1 AE of pruritic rash considered related” (Panel IV (LD 150 mg twice daily for two days, MD 150 mg Q3D or Q4D)). For the same compound, under “Panels I-IV”, the “Grade 2 Treatment Emergent Events, overall” value is 4. For the same compound, under “Panels I-IV”, the “Grade 3 Treatment Emergent Events, overall” value is reported as “No”. Moreover, the “Safety and tolerability, overall conclusion” value (Panels I-IV) was “safe and well tolerated”. The “serious adverse events (SAEs) or/and serious unexpected adverse reactions (SUSARs) observed” value (Panels I-IV) is recorded as “No”.

(Values after patent US20250281457A1, “TREATMENT OR PREVENTION OF DENGUE VIRAL INFECTION” (Janssen Pharmaceuticals, Inc., priority 2022, published 2025).)
